In patent publication US9381349B2, “Apparatus for treating cerebral neurovascular disorders including headaches by neural stimulation” (priority 1997, dated 2016):
Entries after “also recorded” stand apart in the source; their conditions may differ. Read-outs that look alike come from different tables or passages of the source.

Key:
[1] = tested on: acute migraine episodes; type: in vivo, human; parameters: key to Pain Rating After Administration: 0 = no pain, 10 = worst pain imaginable; details: for Mean Time Until Maximal Effect: no unit in table (minutes); for Pain Rating After Administration / Pain Relief: mean; for Pain Rating After Administration / Pain Relief / Rate of Pain Relief (migraine pain reduction per minute per gram of drug): 10-point pain scale
Source text: The purpose of the experiments described in this Example was to determine the efficacy of dorsonasal administration of ropivacaine for inhibition of acute migraine episodes. Ropivacaine was dorsonasally administered to individual patients experiencing head pain, other symptoms, or both, believed to be associated with an acute migraine episode. Patients assessed head pain prior to and after ropivacaine administration.
Ropivacaine-HCl (NAROPINT™, Astra USA, Westborough, Mass.) was used as the commercially-available 0.75% (w/v) solution, and was obtained in 30 milliliter, sterile injectable vials.
Three methods were used to achieve dorsonasal delivery of ropivacaine to individual patients. Ropivacaine was administered to a first group of patients by an intranasal drip method. Ropivacaine was administered to a second group using cotton swabs, the absorbent portions of which were saturated with the ropivacaine solution. Ropivacaine was administered to patients in a third group by spraying the ropivacaine solution into each nostril, using either a squeeze-type spray bottle or a metered-dose spray bottle.
The intranasal drip method used to administer ropivacaine to the first group of patients was a based on the method described by Barre (1982, Headache 22:69-73), except that the ropivacaine solution was used in place of the solution used by Bane. Approximately 0.75 milliliter to approximately 1.0 milliliter of the ropivacaine solution was administered by way of each of the nostrils of each patient.
The cotton swab method used to administer ropivacaine to the second group of patients comprised gently inserting cotton swabs, sequentially and bilaterally, into the nostrils of patients and urging the swabs dorsally until their absorbent portions contacted portions of nasal epithelium located dorsal to the middle conchae. Each swab was left in place for approximately one minute, and was then withdrawn. Approximately 0.5 milliliter of the ropivacaine solution was delivered to each nostril using this method.
Patients in a third group were administered ropivacaine by spraying less than about 0.5 milliliter of the ropivacaine solution into each of the patient's nostrils using either a sterile squeeze bottle or a sterile metered-dose spray bottle of known design. The design and operation of each of these spray bottles are well known in the art.
Prior to administration of ropivacaine, each patient was placed in a supine position with the patient's head hyperextended approximately 45 degrees and rotated approximately 30 degrees to the right side. In this position, an imaginary line extending from the region of the nasal epithelium overlying the SPG of the patient through the patient's left nostril was approximately vertical. Ropivacaine was then administered to the left nostril of the patient as described for each of the three groups of patients. Ropivacaine was administered to each patient's right nostril after rotating the patient's head approximately 30 degrees to the left. Ropivacaine was administered to both nostrils of each patient to prevent cases of unilateral migraine from developing into contralateral migraine.
Prior to ropivacaine administration, each patient rated perceived headache pain according to a standard pain scale of the type used in the art. Patients were asked to rank the severity of pain which they were experiencing on a scale from 0 (no pain) to 10 (worst pain imaginable). This ten-point pain rating scale is analogous to, but has more gradations than, the four-point rating system used by the International Headache Society (IHS; Headache Classification Committee of the International Headache Society, 1988, Cephalalgia 8(Suppl. 7):19-28). Ropivacaine was administered to one nostril of each patient, and then to the other. The time required to administer ropivacaine to both nostrils of each patient was approximately three minutes. […]

[2] = cited from earlier work
[3] = ropivacaine 0.75% (w/v), 2 Metered Sprays per nostril, individual patients, pain scale 0-10
[4] = ropivacaine 0.75% (w/v), 2 Sprays per nostril (squeeze bottle), individual patients, pain scale 0-10
[5] = ropivacaine 0.75% (w/v), 2 cc Drops (nasal drip), individual patients, pain scale 0-10
[6] = ropivacaine 0.75% (w/v), Sat'd Cotton Swab, individual patients, pain scale 0-10
[7] = ropivacaine 0.75% (w/v), Sat'd Cotton Swab, individual patients, pain scale 0-10, listed as R
[8] = ropivacaine vs literature rizatriptan data (Kramer et al.)
[9] = ropivacaine, Cotton Swab, 24 patients
[10] = ropivacaine, Nasal Drops, 3 patients
[11] = ropivacaine, Nasal Spray, 10 patients
[12] = ropivacaine, nasal drops, three patients

Apparent allergic reaction ([1]; human, in vivo): allergic reaction between 5
Oropharyngeal numbness ([1]; human, in vivo): 6
SMILES: CCCN1CCCC[C@H]1C(=O)Nc1c(C)cccc1C [Ropivacaine, ropivacaine]
Adverse effects of administration ([1]; human, in vivo): one patient experienced an allergic response to ropivacaine administration
Time to half maximal inhibition of CNvD or symptom ([1]; intranasal or dorsonasal administration): within about three minutes
Pain 10 min post-treatment [1, 3]: Pain 10 min post-treatment: 0
Pain 15 min post-treatment [1, 3]: Pain 15 min post-treatment: 5
Pain 20 min post-treatment [1, 3]: Pain 20 min post-treatment: 3
Pain 45 min post-treatment [1, 3]: Pain 45 min post-treatment: 0
Pain 60 min post-treatment [1, 3]: Pain 60 min post-treatment: 2
Pain 90 min post-treatment [1, 3]: Pain 90 min post-treatment: 0
Pain 2 min post-treatment [1, 4]: Pain 2 min post-treatment: 0
Pain 10 min post-treatment [1, 4]: Pain 10 min post-treatment: 0
Pain 15 min post-treatment [1, 4]: Pain 15 min post-treatment: 2
Pain 20 min post-treatment [1, 4]: 0
Pain 30 min post-treatment [1, 4]: 0
Pain 3 min post-treatment [1, 5]: Pain 3 min post-treatment: 0
Pain 60 min post-treatment [1, 5]: Pain 60 min post-treatment: 0
Pain 15 min post-treatment ([1]; ropivacaine 0.75% (w/v), 2 cc Drops (nasal drip), individual patients, pain scale 0-10, listed as R): Pain 15 min post-treatment: 0; also recorded: Pain 15 min post-treatment: 5
Persistence of residual pain ([1]; ropivacaine 0.75% (w/v), Sat'd Cotton Swab, P#40): Level 5 pain endured 8 hours
Pain 1 min post-treatment [1, 6]: Pain 1 min post-treatment: 0
Pain 8 min post-treatment [1, 6]: Pain 8 min post-treatment: 0
Pain 15 min post-treatment [1, 6]: Pain 15 min post-treatment: 0
Pain 30 min post-treatment [1, 6]: Pain 30 min post-treatment: 5
Pain 18 hrs post-treatment [1, 6]: Pain 18 hrs post-treatment: 8
Pain 24 hours post-treatment [1, 6]: Pain 24 hours post-treatment: 1
Pain 2 min post-treatment [1, 7]: Pain 2 min post-treatment: 1; also recorded: Pain 2 min post-treatment: 0
Pain 3 min post-treatment [1, 7]: Pain 3 min post-treatment: 0; also recorded: Pain 3 min post-treatment: 1
Pain 5 min post-treatment [1, 7]: Pain 5 min post-treatment: 0; also recorded: Pain 5 min post-treatment: 1; also recorded: Pain 5 min post-treatment: 2
Pain 10 min post-treatment [1, 7]: Pain 10 min post-treatment: 1; also recorded: Pain 10 min post-treatment: 0
Pain 20 min post-treatment [1, 7]: Pain 20 min post-treatment: 3; also recorded: Pain 20 min post-treatment: 0
Patients with significant pain reduction ([1]; ropivacaine 0.75% (w/v), cotton swab): 100%
Effectiveness to reduce pain associated with migraine ([1]; ropivacaine 0.75% (w/v), dorsonasal spray): 100%
Pain following spray ([1]; ropivacaine 0.75% (w/v), retreated with 2 Sprays 18 hrs after swab treatment (P#14), pain scale 0-10): 0
Response rate compared with lidocaine (FIG. 3) ([1]; ropivacaine vs literature lidocaine data (Maizels et al.)): nearly two-fold greater response rate
Rebound rate compared with rizatriptan [1, 8]: lower than the rebound rate following rizatriptan administration
Response rate compared with rizatriptan [1, 8]: greater than the response rate obtained by administration of rizatriptan
Onset of relief and response rate compared with sumatriptan (FIG. 3) ([1]; ropivacaine vs literature subcutaneous sumatriptan data): earlier onset of relief and a higher response rate
Mean Reduction in Pain Rating [1, 9]: 8.64 IHS points
Mean Time Until Maximal Effect [1, 9]: 7.41
Pain Rating After Administration ([1]; ropivacaine, Cotton Swab): 0.33
Pain Relief ([1]; ropivacaine, Cotton Swab): 8.73
Rebound Rate ([1]; ropivacaine, Dorsonasal Spray): 10%
Relative Efficacy (Rate of Pain Relief divided by that of intranasally spray-administered lidocaine) ([1]; ropivacaine, Dorsonasal Spray): 2.45
Rate of Pain Relief (migraine pain reduction per minute per gram of drug) ([1]; ropivacaine, Dorsonasal Spray): 24.5
Rebound Rate ([1]; ropivacaine, Dorsonasal Swab): 4%
Relative Efficacy (Rate of Pain Relief divided by that of intranasally spray-administered lidocaine) ([1]; ropivacaine, Dorsonasal Swab): 15.5
Rate of Pain Relief (migraine pain reduction per minute per gram of drug) ([1]; ropivacaine, Dorsonasal Swab): 155
Rate of Pain Relief ([1]; ropivacaine, Nasal Drops): 1.25 IHS points per minute
Mean Reduction in Pain Rating [1, 10]: 9.00 IHS points
Mean Time Until Maximal Effect [1, 10]: 26.0
Pain Rating After Administration ([1]; ropivacaine, Nasal Drops): 0.00
Pain Relief ([1]; ropivacaine, Nasal Drops): 9.00
Rate of Pain Relief ([1]; ropivacaine, Nasal Spray): 0.287 IHS points per minute
Mean Reduction in Pain Rating [1, 11]: 6.22 IHS points
Mean Time Until Maximal Effect [1, 11]: 33.9
Pain Rating After Administration ([1]; ropivacaine, Nasal Spray): 1.00
Pain Relief ([1]; ropivacaine, Nasal Spray): 6.22
Patients with complete relief ([1]; ropivacaine, all routes): 72%
Patients with migraine inhibited / significant (greater than 50%) reduction of migraine severity ([1]; ropivacaine, all routes, thirty-seven migraine patients): 92%
Average reduction in perceived pain ([1]; ropivacaine, all routes, within one hour, usually within 15 minutes or less): 90%
Rebound of migraine, patients ([1]; ropivacaine, all routes, within twenty-four hours of treatment): 5.4%
Mean time between treatment and perception of the peak effect ([1]; ropivacaine, cotton swab): 7.41 ± 1.47 min
Patients achieving a pain severity rating of zero ([1]; ropivacaine, cotton swab): 72%
Patients achieving a pain severity rating of zero or one ([1]; ropivacaine, cotton swab): 95%
Patients with rebound ([1]; ropivacaine, cotton swab): 4%
Rate of Pain Relief ([1]; ropivacaine, cotton swab): 2.32 IHS points per minute
Mean peak headache severity rating reduction ([1]; ropivacaine, cotton swab, twenty-four patients): 8.73±0.249 points
Mean post-administration pain severity rating at the time of peak effect ([1]; ropivacaine, cotton swab, twenty-four patients, mean±standard error, out of 10 points): 0.33±0.14 points
Potency relative to intranasally spray-administered lidocaine (pain relief per unit weight) ([1]; ropivacaine, dorsonasally spray-administered): 2.4 times
Potency relative to intranasally spray-administered lidocaine (pain relief per unit weight) ([1]; ropivacaine, dorsonasally swab-administered): more than 15 times
Mean time between treatment and perception of the peak effect [1, 12]: 26.00 ± 17.37 min
Migraine rebound [1, 12]: None of the three patients experienced migraine rebound
Mean peak headache severity rating reduction ([1]; ropivacaine, nasal drops, three patients, out of 10 points): 9.00 points
Mean time between treatment and perception of the peak effect ([1]; ropivacaine, nasal spray, ten patients): 33.9 ± 8.48 min
Mean peak headache severity rating reduction ([1]; ropivacaine, nasal spray, ten patients, out of 10 points): 6.22±0.66 points
Mean headache pain severity rating reduction in patients without complete relief ([1]; ropivacaine, nasal spray, the remainder of ten patients): 87.5±6.49%
Patients without rebound ([1]; ropivacaine, patients observed for up to seven days): 95%
Proportion bound to protein in vivo [2]: Approximately 95%
